These results are taken from US12049518B2, “Pharmacokinetics and cholecystokinin-2 receptor (CCK2R) targeting for diagnosis and therapy” (Medizinische Universitat Innsbruck, priority 2017, dated 2024).

The tissue uptake is the share of the injected amount in each gram of the tissue.

One data set relates to serum proteins. The data set can be described thus: protein binding to serum proteins (Sephadex G-50 size-exclusion chromatography). The settings on record: 37° C.; for fraction unbound at 4 h, 500 pmol/mL / fraction unbound at 24 h, 500 pmol/mL: fresh human serum; for fraction unbound at 4 h, 500 pmol/mL: read-out: Percentage of radioligand bound to serum proteins after 4 h incubation (converted); for fraction unbound at 24 h, 500 pmol/mL: read-out: Percentage of radioligand bound to serum proteins after 24 h incubation (converted); for Percentage of radioligand bound to serum proteins after 24 h incubation: human serum. Type of data set: in vitro ADME. The procedure: Additionally, protein binding to serum proteins was investigated. For this purpose the ^111In-labelled peptidomimetics were incubated in duplicates in fresh human serum at 37° C. (500 pmol/mL) and analyzed after 4 and 24 h by Sephadex G-50 size-exclusion chromatography (GE Healthcare Illustra, Little Chalfont, UK). The percentage of protein binding was determined by measuring the column and the eluate in a 2480 Wizard 2 automatic gamma-counter (Perkin Elmer Life Sciences and Analytical Sciences, Turku, F).
(In gel filtration, larger molecules generally elute earlier.)

Data set [1] is described as follows: stability in vivo (radio-HPLC of blood sample). The settings on record: BALB/c mice, i.v. As for the experimental part: To further characterise the stability of the radiolabelled peptidomimetics in vivo, metabolic studies were carried out in 5-6-week-old female BALB/c mice (Charles River, Sulzfeld, Germany) injected intravenously with the ^111In- and […] peptidomimetics. All animal experiments were conducted in compliance with the Austrian animal protection laws and with the approval of the Austrian Ministry of Science. To allow monitoring of the metabolites by radio-HPLC, mice were injected with a higher amount of radioactivity (5-15 MBq ^111In and 20-40 MBq ^177Lu, corresponding to 1-2 nmol total peptide) through a lateral tail vein and euthanized by cervical dislocation 10 or 30 min post injection (p.i.). A sample of blood was collected and the degradation was assessed by radio-HPLC.

Data set [2] in a line: biodistribution: uptake in normal tissues. The settings on record: female, athymic BALB/c nude, mouse, blood, lung and heart, iv, total radioactivity; 1 or 4 h p.i.; read-out: unspecific tissue uptake in blood, lung and heart. It is filed as in vivo, athymic BALB/c nude mice. The procedure: Biodistribution studies evaluating the tumour uptake of the radiolabelled inventive CCK2R targeting peptide analogues were performed in 7-week-old female athymic BALB/c nude mice (Charles River, Sulzfeld, Germany). All animal experiments were conducted in compliance with the Austrian animal protection laws and with the approval of the Austrian Ministry of Science. For the induction of tumour xenografts, A431-CCK2R and A431-mock cells were injected subcutaneously in the right and left flank respectively (2 million cells in 200 μl). When tumours had reached a size of approximately 0.2 ml biodistribution studies were carried out. Groups of 4 mice were injected intravenously via a lateral tail vein with the peptidomimetics of the present invention, labelled with ^111In (approximately 0.2 MBq and 0.02 nmol peptidomimetic), with ^68Ga (approximately 0.8 MBq and 0.02-0.03 nmol peptidomimetic), with ^177Lu (approximately 0.5 MBq and 0.02 nmol peptidomimetic) or with ^99mTc (approximately 0.3 MBq and 0.02 nmol peptidomimetic). After a time period of 1 or 4 h post-injection (p.i.) the animals were sacrificed by cervical dislocation, tumours and other tissues (blood, lung, heart, muscle, bone, spleen, intestine, liver, kidneys, stomach, pancreas) were removed, weighed, and their radioactivity measured in the gamma counter. Results were expressed as percentage of injected activity per gram tissue (% IA/g) and tumour to organ activity ratios were calculated from the activity measured in the dissected tissues. In FIG. 4 the results of the biodistribution studies at 4 h p.i. are summarized for the ^111In-labelled peptidomimetics of the present invention in comparison with ^111In-DOTA-MGS1 and ^111In-DOTA-MGS4 (Klingler M et al., Eur J Nucl Med Mol Imaging 2017, 44: S228). In FIG. 5 the results for the model peptidomimetics of the present invention, DOTA-MGS5 and HYNIC-MGS5, radiolabelled with different radiometals are shown for different time points of 1 or 4 h p.i. […] The uptake in A431-mock tumour xenografts with values <1% IA/g was very low confirming the high receptor-specific tumour uptake. […] A combination of high stability and increased protein binding in vivo seems therefore to result in an optimal protection of the radioligand against enzymatic degradation in blood allowing reaching an extremely high tumour uptake.

Where a SMILES comes first, the peptide text is derived from it. [ ]: non-standard residue; d: D form. The star is where a group is joined. DOTA = O=C(O)CN1CCN(CC(=O)O)CCN(CC(=O)*)CCN(CC(=O)O)CC1; 1Nal = N[C@@H](Cc1cccc2ccccc12)C(=O)O; NMeNle = CCCC[C@H](NC)C(=O)O

For the compound `CCCC[C@@H](C(=O)N[C@@H](CC(=O)O)C(=O)N(C)[C@@H](Cc1ccccc1)C(N)=O)N(C)C(=O)[C@H](Cc1c[nH]c2ccccc12)NC(=O)CNC(=O)[C@H](Cc1ccc(O)cc1)NC(=O)[C@H](C)NC(=O)[C@@H](CCC(=O)O)NC(=O)CN1CCN(CC(=O)O)CCN(CC(=O)O)CCN(CC(=O)O)CC1` [^111In-DOTA-MGS4, ^111In-DOTA-DGlu-Ala-Tyr-Gly-Trp-(N-Me)Nle-Asp-(N-Me)Phe-NH2, metal not drawn, reference compound], in the data set on serum proteins, the fraction unbound at 4 h, 500 pmol/mL is 0.911; the fraction unbound at 24 h, 500 pmol/mL was 0.881; the “Percentage of radioligand bound to serum proteins after 24 h incubation” value (“Percentage of radioligand bound” for short) is listed as ~12%.

With `CSCC[C@H](NC(=O)[C@H](Cc1c[nH]c2ccccc12)NC(=O)CNC(=O)[C@H](Cc1ccc(O)cc1)NC(=O)[C@H](C)NC(=O)[C@@H](CCC(=O)O)NC(=O)[C@@H](CCC(=O)O)NC(=O)[C@@H](CCC(=O)O)NC(=O)[C@@H](CCC(=O)O)NC(=O)[C@@H](CCC(=O)O)NC(=O)[C@@H](CCC(=O)O)NC(=O)CN1CCN(CC(=O)O)CCN(CC(=O)O)CCN(CC(=O)O)CC1)C(=O)N[C@@H](CC(=O)O)C(=O)N[C@@H](Cc1ccccc1)C(N)=O` [^177Lu-PP-F11, metal not drawn, reference compound], the “intact radioligand present in the blood at 30 min p.i.” value in data set [1] came to 5.5%.

In the case of `CCCC[C@@H](C(=O)N[C@@H](CC(=O)O)C(=O)N[C@@H](Cc1cccc2ccccc12)C(N)=O)N(C)C(=O)[C@H](Cc1c[nH]c2ccccc12)NC(=O)CNC(=O)[C@@H]1CCCN1C(=O)[C@H](Cc1ccc(O)cc1)NC(=O)[C@@H](CCC(=O)O)NC(=O)CN1CCN(CC(=O)O)CCN(CC(=O)O)CCN(CC(=O)O)CC1` [^111In-DOTA-MGS10, metal not drawn] ({DOTA}-[dE]YPGW[NMeNle]D[1Nal]-NH2), the fraction unbound at 4 h, 500 pmol/mL in the data set with serum proteins is 0.433. Moreover, in data set [1], the “intact radioligand present in the blood at 10 min p.i.” value came to 82.3±1.8%.

Consider `CCCC[C@@H](C(=O)N[C@@H](CC(=O)O)C(=O)N[C@@H](Cc1cccc2ccccc12)C(N)=O)N(C)C(=O)[C@H](Cc1c[nH]c2ccccc12)NC(=O)[C@@H]1CCCN1C(=O)[C@H](Cc1ccc(O)cc1)NC(=O)[C@H](C)NC(=O)[C@@H](CCC(=O)O)NC(=O)CN1CCN(CC(=O)O)CCN(CC(=O)O)CCN(CC(=O)O)CC1` [^111In-DOTA-MGS12, metal not drawn] ({DOTA}-[dE]AYPW[NMeNle]D[1Nal]-NH2), for which the fraction unbound at 24 h, 500 pmol/mL in the data set on serum proteins is 0.541.

As for `CCCC[C@@H](C(=O)N[C@@H](CC(=O)O)C(=O)N[C@@H](Cc1cccc2ccccc12)C(N)=O)N(C)C(=O)[C@H](Cc1c[nH]c2ccccc12)NC(=O)CNC(=O)[C@H](Cc1ccc(O)cc1)NC(=O)[C@H](C)NC(=O)[C@@H](CCC(=O)O)NC(=O)CN1CCN(CC(=O)O)CCN(CC(=O)O)CCN(CC(=O)O)CC1` [^111In-DOTA-MGS5, metal not drawn], in the data set on serum proteins, the fraction unbound at 4 h, 500 pmol/mL was 0.59 and the fraction unbound at 24 h, 500 pmol/mL is 0.557. For the same compound, the “intact radioligand present in the blood at 10 min p.i.” value in data set [1] worked out at 82.7±3.3%.

With `CCCC[C@@H](C(=O)N[C@@H](CC(=O)O)C(=O)N(C)[C@@H](Cc1cccc2ccccc12)C(N)=O)N(C)C(=O)[C@H](Cc1c[nH]c2ccccc12)NC(=O)CNC(=O)[C@H](Cc1ccc(O)cc1)NC(=O)[C@H](C)NC(=O)[C@@H](CCC(=O)O)NC(=O)CN1CCN(CC(=O)O)CCN(CC(=O)O)CCN(CC(=O)O)CC1` [^111In-DOTA-MGS11, metal not drawn], in the data set with serum proteins, the fraction unbound at 4 h, 500 pmol/mL was 0.681; the fraction unbound at 24 h, 500 pmol/mL is 0.602; the “Percentage of radioligand bound” value was ~30%. In addition, the “intact radioligand present in the blood at 10 min p.i.” value in data set [1] was found to be 98.4±0.1%.

As to `CCCC[C@@H](C(=O)N[C@@H](CC(=O)O)C(=O)N[C@@H](Cc1cccc2ccccc12)C(N)=O)N(C)C(=O)[C@H](Cc1c[nH]c2ccccc12)NC(=O)CNC(=O)[C@H](Cc1ccc(O)cc1)NC(=O)[C@@H]1CCCN1C(=O)[C@@H](CCC(=O)O)NC(=O)CN1CCN(CC(=O)O)CCN(CC(=O)O)CCN(CC(=O)O)CC1` [^177Lu-DOTA-MGS8, metal not drawn] ({DOTA}-[dE]PYGW[NMeNle]D[1Nal]-NH2), in data set [1], the “intact radioligand present in the blood at 10 min p.i.” value is on record as 80.5% and the “intact radioligand present in the blood at 30 min p.i.” value came to 56.8%.

For the compound `CSCC[C@H](NC(=O)[C@H](Cc1c[nH]c2ccccc12)NC(=O)CNC(=O)[C@H](Cc1ccc(O)cc1)NC(=O)[C@H](C)NC(=O)[C@@H](CCC(=O)O)NC(=O)CN1CCN(CC(=O)O)CCN(CC(=O)O)CCN(CC(=O)O)CC1)C(=O)N[C@@H](CC(=O)O)C(=O)N[C@@H](Cc1cccc2ccccc12)C(N)=O` [^111In-DOTA-MGS1, ^111In-DOTA-DGlu-Ala-Tyr-Gly-Trp-Met-Asp-1Nal-NH2, metal not drawn, reference compound] ({DOTA}-[dE]AYGWMD[1Nal]-NH2), in the data set with serum proteins, the fraction unbound at 4 h, 500 pmol/mL was 0.8 and the fraction unbound at 24 h, 500 pmol/mL is 0.712.

For `CCCC[C@@H](C(=O)N[C@@H](CC(=O)O)C(=O)N[C@@H](Cc1cccc2ccccc12)C(N)=O)N(C)C(=O)[C@H](Cc1c[nH]c2ccccc12)NC(=O)CNC(=O)[C@H](Cc1ccc(O)cc1)NC(=O)[C@@H]1CCCN1C(=O)[C@@H](CCC(=O)O)NC(=O)CN1CCN(CC(=O)O)CCN(CC(=O)O)CCN(CC(=O)O)CC1` [^111In-DOTA-MGS8, metal not drawn] ({DOTA}-[dE]PYGW[NMeNle]D[1Nal]-NH2), in data set [1], the “intact radioligand present in the blood at 10 min p.i.” value was 80.0±5.2%.

Turning to `CCCC[C@@H](C(=O)N[C@@H](CC(=O)O)C(=O)N[C@@H](Cc1ccc2ccccc2c1)C(N)=O)N(C)C(=O)[C@H](Cc1c[nH]c2ccccc12)NC(=O)CNC(=O)[C@H](Cc1ccc(O)cc1)NC(=O)[C@H](C)NC(=O)[C@@H](CCC(=O)O)NC(=O)CN1CCN(CC(=O)O)CCN(CC(=O)O)CCN(CC(=O)O)CC1` [^111In-DOTA-MGS5-2, metal not drawn], in the data set on serum proteins, the fraction unbound at 4 h, 500 pmol/mL is 0.683; the fraction unbound at 24 h, 500 pmol/mL was 0.654; the “Percentage of radioligand bound” value is given as ~30%. In addition, the “intact radioligand present in the blood at 10 min p.i.” value in data set [1] was determined as 88.4±0.4%.

With `CCCC[C@@H](C(=O)N[C@@H](CC(=O)O)C(=O)N[C@@H](Cc1cccc2ccccc12)C(N)=O)N(C)C(=O)[C@H](Cc1c[nH]c2ccccc12)NC(=O)CNC(=O)[C@H](Cc1ccc(O)cc1)NC(=O)[C@H](C)NC(=O)[C@@H](CCC(=O)O)NC(=O)CN1CCN(CC(=O)O)CCN(CC(=O)O)CCN(CC(=O)O)CC1` [^177Lu-DOTA-MGS5, metal not drawn], in data set [1], the “intact radioligand present in the blood at 10 min p.i.” value came out at 85.9% and the “intact radioligand present in the blood at 30 min p.i.” value is 77.0%.

As to `CCCC[C@@H](C(=O)N[C@@H](CC(=O)O)C(=O)N[C@@H](Cc1cccc2ccccc12)C(N)=O)N(C)C(=O)[C@H](Cc1c[nH]c2ccccc12)NC(=O)CNC(=O)[C@H](Cc1ccc(O)cc1)NC(=O)[C@H](C)NC(=O)[C@@H](CCC(=O)O)NC(=O)CN1CCN(CC(=O)O)CCN(CC(=O)O)CCN(CC(=O)O)CC1` [^68Ga-DOTA-MGS5, metal not drawn], in data set [2], the tissue uptake was 1 to 2 %ID/g.

Turning to `CCCC[C@H](NC(=O)[C@H](Cc1c[nH]c2ccccc12)NC(=O)CNC(=O)[C@H](Cc1ccc(O)cc1)NC(=O)[C@H](C)NC(=O)[C@@H](CCC(=O)O)NC(=O)[C@@H](CCC(=O)O)NC(=O)[C@@H](CCC(=O)O)NC(=O)[C@@H](CCC(=O)O)NC(=O)[C@@H](CCC(=O)O)NC(=O)[C@@H](CCC(=O)O)NC(=O)CN1CCN(CC(=O)O)CCN(CC(=O)O)CCN(CC(=O)O)CC1)C(=O)N[C@@H](CC(=O)O)C(=O)N[C@@H](Cc1ccccc1)C(N)=O` [^177Lu-PP-F11N, metal not drawn, reference compound], in data set [1], the “intact radioligand present in the blood at 10 min p.i.” value amounted to 22.3% and the “intact radioligand present in the blood at 30 min p.i.” value was 12.7%.
